Measurements taken from PubChem BioAssay AID248 (DTP/NCI, 2004).
Values joined by “and” are separate entries in the source; they are usually repeats but may differ in a detail not shown here. Equal values may be shown once. Inconclusive results and toxic doses are left out. Rule as the data show it: active = T/C of 150% or more; inactive = T/C below 125%.

Tested on: L1210 leukemia ip in BDF1 mice, survival T/C
Test: NCI In Vivo Anticancer Drug Screen. Data for tumor model L1210 Leukemia (intraperitoneal) in B6D2F1 (BDF1) mice
Settings: endpoint: mean survival time, higher = longer survival
Method in brief: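 Tumor cells were implanted, animals were treated, and survival was followed. The result divides the treated measurement by the vehicle-control measurement.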

[1] = dose: 25.0 mg/kg/injection, schedule: Q04DX002 (ip), vehicle: saline with Tween-80
[2] = dose: 50.0 mg/kg/injection, schedule: Q04DX002 (ip), vehicle: saline with Tween-80
[3] = dose: 100.0 mg/kg/injection, schedule: Q01DX001 (ip), vehicle: saline
[4] = dose: 100.0 mg/kg/injection, schedule: Q01DX009 (ip), vehicle: Klucel (hydroxypropylcellulose) (HPC)
[5] = dose: 200.0 mg/kg/injection, schedule: Q01DX001 (ip), vehicle: saline
[6] = dose: 400.0 mg/kg/injection, schedule: Q01DX001 (ip), vehicle: saline
[7] = dose: 100.0 mg/kg/injection, schedule: Q04DX003 (ip), vehicle: saline
[8] = dose: 200.0 mg/kg/injection, schedule: Q04DX003 (ip), vehicle: saline
[9] = dose: 400.0 mg/kg/injection, schedule: Q04DX003 (ip), vehicle: saline

Measured: T/C

CCCCC#CC(=O)OCCCC
inactive: dose: 100.0 mg/kg/injection, schedule: Q04DX002 (ip), vehicle: saline 94 % of control | dose: 200.0 mg/kg/injection, schedule: Q04DX002 (ip), vehicle: saline 97 % of control | dose: 400.0 mg/kg/injection, schedule: Q04DX002 (ip), vehicle: saline 102 % of control

CCCCOP(=O)(OCCCC)C(C)c1ccccc1 (stereo not given)
inactive: dose: 12.5 mg/kg/injection, schedule: Q04DX003 (ip), vehicle: saline with Tween-80 104 % of control | dose: 25.0 mg/kg/injection, schedule: Q01DX009 (ip), vehicle: saline with Tween-80 95 % of control and 100 % of control | [1] 95 % of control and 87 % of control | dose: 25.0 mg/kg/injection, schedule: Q04DX003 (ip), vehicle: saline with Tween-80 98 % of control | dose: 50.0 mg/kg/injection, schedule: Q01DX001 (ip), vehicle: saline with Tween-80 107 % of control | dose: 50.0 mg/kg/injection, schedule: Q01DX009 (ip), vehicle: saline with Tween-80 99 % of control and 104 % of control | [2] 103 % of control and 90 % of control | dose: 50.0 mg/kg/injection, schedule: Q04DX003 (ip), vehicle: saline with Tween-80 93 % of control and 106 % of control | dose: 100.0 mg/kg/injection, schedule: Q01DX001 (ip), vehicle: saline with Tween-80 107 % of control | dose: 100.0 mg/kg/injection, schedule: Q04DX002 (ip), vehicle: saline with Tween-80 94 % of control and 96 % of control and 108 % of control | dose: 200.0 mg/kg/injection, schedule: Q01DX001 (ip), vehicle: saline with Tween-80 94 % of control

CCC[CH2][Sn]1([CH2]CCC)[O]C(=O)c2cccc([N+](=O)[O-])c2C(=O)[O]1
inactive: [3] 117 % of control

CN1C=c2c3c(ccc2=C2C=CC4C=C5OCOC5=CC4=C21)OCO3 (stereo not given)
inactive: dose: 2.0 mg/kg/injection, schedule: Q01DX015 (ip), vehicle: saline 97 % of control | dose: 4.0 mg/kg/injection, schedule: Q01DX015 (ip), vehicle: saline 91 % of control | dose: 5.0 mg/kg/injection, schedule: Q01DX001 (ip), vehicle: saline 96 % of control | dose: 6.25 mg/kg/injection, schedule: Q04DX003 (ip), vehicle: saline 92 % of control | dose: 7.5 mg/kg/injection, schedule: Q01DX009 (ip), vehicle: saline 97 % of control | dose: 8.0 mg/kg/injection, schedule: Q01DX015 (ip), vehicle: saline 92 % of control | dose: 10.0 mg/kg/injection, schedule: Q01DX001 (ip), vehicle: saline 96 % of control | dose: 12.5 mg/kg/injection, schedule: Q04DX003 (ip), vehicle: saline 88 % of control | dose: 15.0 mg/kg/injection, schedule: Q01DX009 (ip), vehicle: saline 100 % of control | dose: 16.0 mg/kg/injection, schedule: Q01DX015 (ip), vehicle: saline 100 % of control | dose: 20.0 mg/kg/injection, schedule: Q01DX001 (ip), vehicle: saline 94 % of control | dose: 25.0 mg/kg/injection, schedule: Q04DX003 (ip), vehicle: saline 95 % of control and 90 % of control | dose: 30.0 mg/kg/injection, schedule: Q01DX009 (ip), vehicle: saline 102 % of control

COc1ccc(OC)c(NC(=O)Oc2ccccc2F)c1
inactive: dose: 50.0 mg/kg/injection, schedule: Q01DX009 (ip), vehicle: Klucel (hydroxypropylcellulose) (HPC) 97 % of control | [4] 93 % of control | dose: 100.0 mg/kg/injection, schedule: Q04DX003 (ip), vehicle: Klucel (hydroxypropylcellulose) (HPC) 90 % of control | dose: 200.0 mg/kg/injection, schedule: Q04DX003 (ip), vehicle: Klucel (hydroxypropylcellulose) (HPC) 93 % of control | dose: 400.0 mg/kg/injection, schedule: Q04DX003 (ip), vehicle: Klucel (hydroxypropylcellulose) (HPC) 92 % of control

O=C(Nc1ccc(F)cc1)OCCOc1ccc(Br)cc1
inactive: [4] 95 % of control | dose: 200.0 mg/kg/injection, schedule: Q01DX009 (ip), vehicle: Klucel (hydroxypropylcellulose) (HPC) 98 % of control | dose: 400.0 mg/kg/injection, schedule: Q01DX009 (ip), vehicle: Klucel (hydroxypropylcellulose) (HPC) 102 % of control

CN(C(=O)OCc1ccccc1)c1ccc(C(=O)NC(CC(=O)O)CC(=O)O)cc1
inactive: [3] 88 % of control | [5] 96 % of control | [6] 90 % of control

CCOC(=O)N\C(N)=N/N=C(C)\C=N\N=C(/N)NC(=O)OCC
inactive: dose: 15.0 mg/kg/injection, schedule: Q01DX Z (ip), vehicle: carboxymethylcellulose (CMC) 95 % of control | dose: 30.0 mg/kg/injection, schedule: Q01DX Z (ip), vehicle: carboxymethylcellulose (CMC) 101 % of control | dose: 60.0 mg/kg/injection, schedule: Q01DX Z (ip), vehicle: carboxymethylcellulose (CMC) 106 % of control | dose: 120.0 mg/kg/injection, schedule: Q01DX Z (ip), vehicle: carboxymethylcellulose (CMC) 97 % of control

CC(O)(C(=O)O)c1ccccc1 (stereo not given) (tested in a mixture with another compound)
inactive: dose: 100.0 mg/kg/injection, schedule: Q01DX009 (ip), vehicle: other 94 % of control | [7] 92 % of control | dose: 200.0 mg/kg/injection, schedule: Q01DX009 (ip), vehicle: other 98 % of control | [8] 103 % of control | dose: 400.0 mg/kg/injection, schedule: Q01DX009 (ip), vehicle: other 102 % of control | [9] 89 % of control

Nc1ccc2ccccc2c1N=Nc1ccc(C(O)C(N)CO)cc1 (stereo not given)
inactive: dose: 6.25 mg/kg/injection, schedule: Q01DX009 (ip), vehicle: saline 117 % of control | dose: 12.5 mg/kg/injection, schedule: Q01DX009 (ip), vehicle: saline 98 % of control | dose: 25.0 mg/kg/injection, schedule: Q01DX009 (ip), vehicle: saline 96 % of control

Cl/C(=N\Nc1ccccc1)c1ccccc1
inactive: dose: 3.52 mg/kg/injection, schedule: Q01DX009 (ip), vehicle: saline sonified 100 % of control | dose: 5.28 mg/kg/injection, schedule: Q01DX009 (ip), vehicle: saline sonified 105 % of control | dose: 7.5 mg/kg/injection, schedule: Q01DX001 (ip), vehicle: Klucel (hydroxypropylcellulose) (HPC) 98 % of control | dose: 8.0 mg/kg/injection, schedule: Q01DX009 (ip), vehicle: saline sonified 100 % of control | dose: 12.0 mg/kg/injection, schedule: Q01DX009 (ip), vehicle: saline sonified 108 % of control | dose: 15.0 mg/kg/injection, schedule: Q01DX001 (ip), vehicle: Klucel (hydroxypropylcellulose) (HPC) 105 % of control | dose: 15.0 mg/kg/injection, schedule: Q01DX009 (ip), vehicle: saline sonified 111 % of control | dose: 30.0 mg/kg/injection, schedule: Q01DX001 (ip), vehicle: Klucel (hydroxypropylcellulose) (HPC) 105 % of control | dose: 30.0 mg/kg/injection, schedule: Q01DX009 (ip), vehicle: saline sonified 118 % of control

COc1ccc(/C=C2/COC/C(=C/c3ccc(OC)c(OC)c3)C2=O)cc1OC
inactive: dose: 100.0 mg/kg/injection, schedule: Q01DX009 (ip), vehicle: saline 98 % of control | [7] 101 % of control | dose: 200.0 mg/kg/injection, schedule: Q01DX009 (ip), vehicle: saline 93 % of control | [8] 95 % of control | dose: 400.0 mg/kg/injection, schedule: Q01DX009 (ip), vehicle: saline 90 % of control | [9] 93 % of control

C=CS(=O)CCCCCCC (stereo not given)
inactive: dose: 12.5 mg/kg/injection, schedule: Q04DX002 (ip), vehicle: saline with Tween-80 106 % of control | [1] 103 % of control | [2] 109 % of control

CCCCCCCCCCC(O)CCCCCCCCCC
inactive: dose: 100.0 mg/kg/injection, schedule: Q01DX009 (ip), vehicle: saline with Tween-80 96 % of control | dose: 200.0 mg/kg/injection, schedule: Q01DX009 (ip), vehicle: saline with Tween-80 105 % of control | dose: 400.0 mg/kg/injection, schedule: Q01DX009 (ip), vehicle: saline with Tween-80 93 % of control

CCOC(=O)C1(C(=O)OCC)CCC(C(=O)OCC)(C(=O)OCC)CC1
inactive: dose: 100.0 mg/kg/injection, schedule: Q04DX002 (ip), vehicle: Klucel (hydroxypropylcellulose) (HPC) 101 % of control | dose: 200.0 mg/kg/injection, schedule: Q04DX002 (ip), vehicle: Klucel (hydroxypropylcellulose) (HPC) 101 % of control | dose: 400.0 mg/kg/injection, schedule: Q04DX002 (ip), vehicle: Klucel (hydroxypropylcellulose) (HPC) 101 % of control

Cc1ccc(/C=C\C(=O)OCCCCOC(=O)/C=C/c2ccc(C)cc2)cc1
inactive: dose: 50.0 mg/kg/injection, schedule: Q01DX001 (ip), vehicle: saline 97 % of control | [3] 95 % of control | [5] 91 % of control | [6] 95 % of control
